Counter-ions that a name gives are not always drawn. Like-named read-outs stand apart in the source and are kept apart here.
Legend:
Type in all cases: biochemical
[1] = target: T1, recombinant PRL-2 (Homo sapiens, UniProt Q12974); experiment: In vitro phosphatase assay (DiFMUP hydrolysis), PRL-2;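 further: PRL-2 activity read as DiFMUP hydrolysis after 20 min at room temperature with drug, enzyme first pre-reduced at 4 °C for 20 min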
T1 construct: 6xHis (N, cleaved yes); made in house; host or cells: E. coli One Shot BL21 Star
T1 sequence (Q12974 1-167): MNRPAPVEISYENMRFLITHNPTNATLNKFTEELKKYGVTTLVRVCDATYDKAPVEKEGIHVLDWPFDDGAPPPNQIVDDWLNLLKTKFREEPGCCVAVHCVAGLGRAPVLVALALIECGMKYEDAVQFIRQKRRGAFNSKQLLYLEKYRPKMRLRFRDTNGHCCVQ

[2] = target: T2, recombinant PRL-3 (Homo sapiens, UniProt O75365); experiment: In vitro phosphatase assay (DiFMUP hydrolysis), PRL-3; further: test concentration or dose not given here
T2 construct: 6xHis (N, cleaved yes); made in house; host or cells: E. coli One Shot BL21 Star

[3] = target: T3, recombinant PRL-1 (Homo sapiens, UniProt Q93096); experiment: In vitro phosphatase assay (DiFMUP hydrolysis), PRL-1; further: test concentration or dose not given here
T3 construct: 6xHis (N, cleaved yes); made in house; host or cells: E. coli One Shot BL21 Star
T3 sequence (Q93096 1-173): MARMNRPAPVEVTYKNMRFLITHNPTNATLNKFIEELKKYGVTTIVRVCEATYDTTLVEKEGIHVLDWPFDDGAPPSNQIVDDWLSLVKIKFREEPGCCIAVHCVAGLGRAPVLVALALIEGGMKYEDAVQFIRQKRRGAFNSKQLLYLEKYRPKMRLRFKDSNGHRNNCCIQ

[4] = FDA-approved drug screen, compared to DMSO
[5] = FDA-approved drug screen, activity compared to DMSO

T2 sequence (O75365 whole entry): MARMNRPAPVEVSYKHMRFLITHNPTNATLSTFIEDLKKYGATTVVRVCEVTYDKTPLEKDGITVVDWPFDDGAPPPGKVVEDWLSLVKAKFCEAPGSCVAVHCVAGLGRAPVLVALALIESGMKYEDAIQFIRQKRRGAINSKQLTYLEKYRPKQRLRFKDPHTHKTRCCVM

Structure (SMILES) | % Phosphatase Activity (compared to DMSO) PRL-2 [1, 4] | % Phosphatase Activity (compared to DMSO) PRL-3 [2, 4] | % Phosphatase Activity (compared to DMSO) PRL-1 [3, 4] | further results
Cc1c(NC(=O)c2cccnc2)c(=O)n(-c2ccccc2)n1C [Nifenazone] | 105% | 92% | 91% | –
O=C1c2cccc3c2[C@H](CCC3)CN1[C@@H]1CN2CCC1CC2 [Palonosetron HCl] | 96% | 117% | 90% | –
CN(C)CCOc1ccc(/C(=C(/CCCl)c2ccccc2)c2ccccc2)cc1 [Toremifene Citrate] | – | – | – | % Phosphatase Activity (compared to DMSO) PRL-2 [1, 5]: 105%; % Phosphatase Activity (compared to DMSO) PRL-3 [2, 5]: 103%; % Phosphatase Activity (compared to DMSO) PRL-1 [3, 5]: 95%
CC(=O)OCC1=C(C(=O)O)N2C(=O)[C@@H](NC(=O)Cc3cccs3)[C@H]2SC1 [Cephalothin] | 91% | 82% | 97% | –
CCC(NC(C)C)C(O)c1ccc(O)c(O)c1 (stereo not drawn) [Isoetharine Mesylate] | 98% | 93% | 103% | –
CS(=O)(=O)OCCCCOS(C)(=O)=O [Busulfan] | 95% | 79% | 103% | –
Cn1c(=O)c2[nH]cnc2n(C)c1=O [Aminophylline] | 96% | 62% | 97% | –
CC1=NN(c2ccccc2)C(=O)C1 [Edaravone] | 82% | 72% | 90% | –
O=C(Nc1c(Cl)cncc1Cl)c1ccc(OC(F)F)c(OCC2CC2)c1 [Roflumilast] | 101% | 87% | 107% | –
COc1cc(C(=O)NS(=O)(=O)c2ccccc2C)ccc1Cc1cn(C)c2ccc(NC(=O)OC3CCCC3)cc12 [Zafirlukast] | – | – | – | % Phosphatase Activity (compared to DMSO) PRL-2 [1, 5]: 66%; % Phosphatase Activity (compared to DMSO) PRL-3 [2, 5]: 48%; % Phosphatase Activity (compared to DMSO) PRL-1 [3, 5]: 68%
O=C(c1ccccc1)c1ccc2n1CCC2C(=O)O (stereo not drawn) [Ketorolac] | 97% | 78% | 98% | –
CCOc1cc(N)c(Cl)cc1C(=O)NCC1CN(Cc2ccc(F)cc2)CCO1 (stereo not drawn) [Mosapride Citrate] | 101% | 57% | 88% | –
CCCN1C[C@H](CSC)C[C@@H]2c3cccc4[nH]cc(c34)C[C@H]21 [Pergolide mesylate] | 119% | 90% | 109% | –
COc1nc(C)nc(Cl)c1N=C1NCCN1 [Moxonidine] | 109% | 80% | 105% | –
C=CC[C@@H]1/C=C(\C)C[C@H](C)C[C@H](OC)[C@H]2O[C@@](O)(C(=O)C(=O)N3CCCC[C@H]3C(=O)O[C@H](/C(C)=C/[C@@H]3CC[C@@H](O)[C@H](OC)C3)[C@H](C)[C@@H](O)CC1=O)[C@H](C)C[C@@H]2OC [Tacrolimus (FK506)] | – | – | – | % Phosphatase Activity (compared to DMSO) PRL-2 [1, 5]: 78%; % Phosphatase Activity (compared to DMSO) PRL-3 [2, 5]: 94%; % Phosphatase Activity (compared to DMSO) PRL-1 [3, 5]: 90%
O=c1[nH]c2ccccc2n1C1CCN(CCCC(c2ccc(F)cc2)c2ccc(F)cc2)CC1 [Pimozide] | 106% | 96% | 91% | –
Cc1cc(C#N)cc(C)c1Oc1nc(Nc2ccc(C#N)cc2)nc(N)c1Br [Etravirine (TMC125)] | 133% | 94% | 112% | –
CCN(CCO)CCCOc1ccc2c(Nc3cc(CC(=O)Nc4cccc(F)c4)[nH]n3)ncnc2c1 [Barasertib (AZD1152-HQPA)] | 95% | 76% | 91% | –
Cc1nccn1CC1CCc2c(c3ccccc3n2C)C1=O.Cl (stereo not drawn) [Ondansetron HCl] | 108% | 96% | 103% | –
CCC1(c2cnc[nH]2)Cc2ccccc2C1.Cl [Atipamezole hydrochloride] | 106% | 88% | 98% | –
Cc1ccccc1N1C(=O)c2cc(S(N)(=O)=O)c(Cl)cc2NC1C (stereo not drawn) [Metolazone] | 163% | 121% | 144% | –

Structure (SMILES) | % Phosphatase Activity (compared to DMSO) PRL-2 [1, 4] | % Phosphatase Activity (compared to DMSO) PRL-3 [2, 4] | % Phosphatase Activity (compared to DMSO) PRL-1 [3, 4] | further results
CC(=O)C1C(=O)C=C(C)OC1=O (stereo not drawn) [Dehydroacetic acid] | 98% | 90% | 99% | –
O=C(OCc1ccccc1)c1ccccc1 [Benzyl benzoate] | 75% | 77% | 83% | –
Cl.Cl.NCCc1c[nH]cn1 [Histamine 2HCl] | – | – | – | % Phosphatase Activity (compared to DMSO) PRL-2 [1]: 118%; % Phosphatase Activity (compared to DMSO) PRL-3 [2]: 71%; % Phosphatase Activity (compared to DMSO) PRL-1 [3]: 97%
C#CCC(Cc1cnc2nc(N)nc(N)c2n1)c1ccc(C(=O)N[C@@H](CCC(=O)O)C(=O)O)cc1 (stereo partly drawn) [Pralatrexate] | 1210% | 875% | 1180% | –
CC(C)(O)c1ccccc1CC[C@@H](SCC1(CC(=O)O)CC1)c1cccc(/C=C/c2ccc3ccc(Cl)cc3n2)c1 [Montelukast Sodium] | 161% | 182% | 172% | –
Cc1nc(-c2ccc(OCC(C)C)c(C#N)c2)sc1C(=O)O [Febuxostat] | 85% | 89% | 95% | –
Cc1nnc(C(=O)NC(C)(C)c2nc(C(=O)NCc3ccc(F)cc3)c(O)c(=O)n2C)o1 [Raltegravir (MK-0518)] | 105% | 90% | 96% | –
Nc1c(CC(=O)O)cccc1C(=O)c1ccc(Br)cc1 [Bromfenac Sodium] | 99% | 75% | 86% | –
C=C1[C@H](CO)[C@@H](O)C[C@@H]1n1cnc2c(=O)[nH]c(N)nc21 [Entecavir Hydrate] | 92% | 71% | 102% | –
Nc1nc2c(ncn2COCCO)c(=O)[nH]1 [Aciclovir] | 99% | 89% | 85% | –
Nc1ccn([C@@H]2O[C@H](CO)[C@@H](O)C2(F)F)c(=O)n1 [Gemcitabine HCl] | 78% | 94% | 93% | –
CSc1ccc2c(c1)N(CCC1CCCCN1C)c1ccccc1S2 (stereo not drawn) [Thioridazine HCl] | – | – | – | % Phosphatase Activity (compared to DMSO) PRL-2 [1]: 104%; % Phosphatase Activity (compared to DMSO) PRL-3 [2]: 97%; % Phosphatase Activity (compared to DMSO) PRL-1 [3]: 95%
Cc1cccc([C@H](C)c2c[nH]cn2)c1C.Cl [Dexmedetomidine HCl (Precedex)] | – | – | – | % Phosphatase Activity (compared to DMSO) PRL-2 [1]: 120%; % Phosphatase Activity (compared to DMSO) PRL-3 [2]: 90%; % Phosphatase Activity (compared to DMSO) PRL-1 [3]: 111%
COc1ncnc(NS(=O)(=O)c2ccc(N)cc2)c1OC [Sulfadoxine] | – | – | – | % Phosphatase Activity (compared to DMSO) PRL-2 [1, 5]: 106%; % Phosphatase Activity (compared to DMSO) PRL-3 [2, 5]: 76%; % Phosphatase Activity (compared to DMSO) PRL-1 [3, 5]: 110%
CCOc1ccc(NC(=O)CC(C)O)cc1 (stereo not drawn) [Bucetin] | 108% | 92% | 109% | –
OC(CCN1CCCC1)(c1ccccc1)C1CCCCC1 (stereo not drawn) [Procyclidine HCl] | 118% | 95% | 112% | –
COc1ccc(C(=O)c2ccccc2)c(O)c1 [Oxybenzone] | 81% | 93% | 99% | –
O=C(CCCN1CCC(O)(c2ccc(Cl)cc2)CC1)c1ccc(F)cc1 [Haloperidol] | 100% | 93% | 93% | –
CC(C)C[C@H](NC(=O)[C@H](Cc1ccccc1)NC(=O)c1cnccn1)B(O)O [Bortezomib (PS-341)] | 121% | 93% | 104% | –
N#CC(c1ccc(Cl)cc1)c1c(Cl)cc(-n2ncc(=O)[nH]c2=O)cc1Cl (stereo not drawn) [Diclazuril] | 112% | 80% | 79% | –
